Results on two compounds are retold here after ChEMBL document CHEMBL5647694, “Novel orally bioavailable EZH1/2 dual inhibitors with greater antitumor efficacy than an EZH2 selective inhibitor” (Cancer Sci, 2017).

pIC50: −log10 of the molar value. Calls of active or inactive are those of the source. The calls are words filed in the database; no cut-off is given here.

The term Cmax denotes the maximum level reached in the sampled fluid or tissue. The inhibition is the change of the read-out against control, counted positive when it falls. Usually GI50 stands for the concentration giving 50% growth inhibition. Broadly, the pIC50 is the negative decadic logarithm of the IC50, by convention in mol/L. Higher therefore signals a small IC50.

Data set [1] can be described thus: Cmax in BALB/c mouse at 6.3 mg/kg administered as single dose. The class given is ADME, organism-based. The note with it: in vivo, route po.
Data set [2] has as its target Testis-specific serine/threonine-protein kinase 1 (Homo sapiens) (UniProt Q9BXA7). Nature of the data set: Inhibition of N-terminal GST-fused full length human TSSK1 (1 to 367 residues) expressed in baculovirus expression system using GS peptide as substrate at 1 uM in presence of ATP by Mobility shift assay.
The subject of the next data set is KARPAS-422. The data set is described as follows: Antitumor activity against human KARPAS-422 cells xenografted in CB17/Icr-Prkdcscid/CrlCrlj mouse assessed as inhibition of tumor growth at 50 mg/kg, po BID for 14 days. The class given is functional, organism-based. The note with it: time 14.0 day. For orientation: A xenograft is tissue or cells of one species grown in another, often human tumour cells in immunodeficient mice.

Data set [3] is described as follows: Cmax in Crl:CD Sprague-Dawley rat at 100 mg/kg, po administered daily for 14 days by LC/MS/MS analysis. The class given is ADME, organism-based. The following applies: in vivo, 336 h, time 14 day.
Data set [4] can be described thus: Toxicity in Crl:CD Sprague-Dawley rat assessed as glucose level in blood at 100 mg/kg, po administered daily for 14 days (reference value: 193 +/-[…]). It counts as organism-based. The note with it: in vivo, 336 h, time 14 day.
Data set [5] in a line: Toxicity in Crl:CD Sprague-Dawley rat assessed as vacuolation of histiocytes in thymus cortex at 100 mg/kg, po administered daily for 14 days by hematoxylin and eosin staining based analysis. The class given is organism-based. The note with it: in vivo, 336 h, time 14 day.
For a further data set, the system named is SUP-B15. Nature of the data set: Antitumor activity against human SUP-B15 cells assessed as cell growth inhibition treated for 10 to 15 days. It counts as functional. The note with it: time 10-15 day.
The next data set relates to JM1. The data set is described as follows: Antitumor activity against human JM1 cells assessed as cell growth inhibition treated for 10 to 15 days. It counts as functional. The following applies: time 10-15 day.
A further data set concerns BT-20. Nature of the data set: Antitumor activity against human BT-20 cells assessed as cell growth inhibition treated for 10 to 15 days. The class given is functional. The note with it: time 10-15 day.
In data set [6] the target is Histone-lysine N-methyltransferase 2B (Homo sapiens, UniProt Q9UMN6). Nature of the data set: Inhibition of human MLL4 using Core Histone and [3H]SAM as substrate incubated for 30 mins to 1 hr by HotSpot kinase assay.
Data set [7] deals with Histone-lysine N-methyltransferase NSD2 (Homo sapiens, UniProt O96028, E1099K). Nature of the data set: Inhibition of human NSD2 E1099K mutant using Nucleosomes and [3H]SAM as substrate incubated for 30 mins to 1 hr by HotSpot kinase assay.
Data set [8] deals with Histone-lysine N-methyltransferase SETD7 (Homo sapiens, UniProt Q8WTS6). The data set is described as follows: Inhibition of human SET7/9 using Core Histone and [3H]SAM as substrate incubated for 30 mins to 1 hr by HotSpot kinase assay.
For data set [9], the target named is N-lysine methyltransferase KMT5A (Homo sapiens, UniProt Q9NQR1). Nature of the data set: Inhibition of human SET8 using Nucleosomes and [3H]SAM as substrate incubated for 30 mins to 1 hr by HotSpot kinase assay.
Data set [10] deals with MAP kinase-activated protein kinase 2 (Homo sapiens) (UniProt P49137). Nature of the data set: Inhibition of N-terminal GST-fused full length human MAPKAPK2 (1 to 400 residues) expressed in baculovirus expression system using GS peptide as substrate at 1 uM in presence of ATP by Mobility shift assay.
The target of data set [11] is MAP kinase-activated protein kinase 3 (Homo sapiens) (UniProt Q16644). The data set is described as follows: Inhibition of N-terminal GST-fused full length human MAPKAPK3 (1 to 382 residues) expressed in baculovirus expression system using GS peptide as substrate at 1 uM in presence of ATP by Mobility shift assay.
In data set [12] the target is Serine/threonine-protein kinase WNK1 (Homo sapiens) (UniProt Q9H4A3). The data set is described as follows: Inhibition of N-terminal GST-fused human WNK1 catalytic domain (1 to 491 residues) expressed in baculovirus expression system using SPAKtide as substrate at 1 uM in presence of ATP by Mobility shift assay.
The subject of another data set is THP-1. The data set is described as follows: Antitumor activity against human THP-1 cells assessed as cell growth inhibition treated for 10 to 15 days. The class given is functional. The note with it: time 10-15 day.
Data set [13] in a line: Antitumor activity against human CMK-86 cells assessed as cell growth inhibition treated for 10 to 15 days. It counts as functional. The note with it: time 10-15 day.
A further data set concerns HL-60. The data set is described as follows: Antitumor activity against human HL-60 cells assessed as cell growth inhibition treated for 10 to 15 days. It counts as functional. The following applies: time 10-15 day.
The next data set deals with KCL-22. Nature of the data set: Antitumor activity against human KCL-22 cells assessed as cell growth inhibition treated for 10 to 15 days. The following applies: time 10-15 day. The class given is functional.
A short description of data set [14]: Antitumor activity against human EB1 cells assessed as cell growth inhibition treated for 10 to 15 days. The class given is functional. The following applies: time 10-15 day.
In a further data set the test system is Toledo. The data set is described as follows: Antitumor activity against human Toledo cells assessed as cell growth inhibition treated for 10 to 15 days. The class given is functional. The note with it: time 10-15 day.
The nature of data set [15]: Antitumor activity against human MINO cells assessed as cell growth inhibition treated for 10 to 15 days. The note with it: time 10-15 day. The class given is functional.
Another data set has as its system JeKo-1. The data set is described as follows: Antitumor activity against human JeKo-1 cells assessed as cell growth inhibition treated for 10 to 15 days. It counts as functional. The following applies: time 10-15 day.
In another data set the test system is Granta-519. Nature of the data set: Antitumor activity against human Granta-519 cells assessed as cell growth inhibition treated for 10 to 15 days. The note with it: time 10-15 day. It counts as functional.
Data set [16] is described as follows: Antitumor activity against human HuT 102 cells assessed as cell growth inhibition treated for 10 to 15 days. It counts as functional. The note with it: time 10-15 day.
The subject of a further data set is MDA-MB-175-VII. The data set is described as follows: Antitumor activity against human MDA-MB-175-VII cells assessed as cell growth inhibition treated for 10 to 15 days. The following applies: time 10-15 day. The class given is functional.
A further data set deals with MDA-MB-157. Nature of the data set: Antitumor activity against human MDA-MB-157 cells assessed as cell growth inhibition treated for 10 to 15 days. It counts as functional. The following applies: time 10-15 day.
The test system of another data set is MDA-MB-231. The data set is described as follows: Antitumor activity against human MDA-MB-231 cells assessed as cell growth inhibition treated for 10 to 15 days. The class given is functional. The following applies: time 10-15 day.
In another data set the test system is LS-513. Nature of the data set: Antitumor activity against human LS-513 cells assessed as cell growth inhibition treated for 10 to 15 days. The class given is functional. The following applies: time 10-15 day.
A further data set concerns DMS-114. The data set is described as follows: Antitumor activity against human DMS-114 cells assessed as cell growth inhibition treated for 10 to 15 days. The class given is functional. The following applies: time 10-15 day.
For another data set, the system named is NCI-H522. The data set is described as follows: Antitumor activity against human NCI-H522 cells assessed as cell growth inhibition treated for 10 to 15 days. The class given is functional. The following applies: time 10-15 day.
Another data set deals with NCI-H1092. The data set is described as follows: Antitumor activity against human NCI-H1092 cells assessed as cell growth inhibition treated for 10 to 15 days. The note with it: time 10-15 day. The class given is functional.
For the next data set, the system named is NCI-H1694. The data set is described as follows: Antitumor activity against human NCI-H1694 cells assessed as cell growth inhibition treated for 10 to 15 days. The class given is functional. The following applies: time 10-15 day.
Data set [17] can be described thus: Antitumor activity against human COV434 cells assessed as cell growth inhibition treated for 10 to 15 days. The following applies: time 10-15 day. It counts as functional.
A short description of data set [18]: Antitumor activity against human COV504 cells assessed as cell growth inhibition treated for 10 to 15 days. The class given is functional. The note with it: time 10-15 day.
The subject of the next data set is KURAMOCHI
The data set is described as follows: Antitumor activity against human KURAMOCHI cells assessed as cell growth inhibition treated for 10 to 15 days. The class given is functional. The following applies: time 10-15 day.

Another data set has as its system HPAC. Nature of the data set: Antitumor activity against human HPAC cells assessed as cell growth inhibition treated for 10 to 15 days. The class given is functional. The note with it: time 10-15 day.
Data set [19] is described as follows: Antitumor activity against human HUG1N cells assessed as cell growth inhibition treated for 10 to 15 days. The class given is functional. The following applies: time 10-15 day.
The test system of the next data set is NCI-N87. The data set is described as follows: Antitumor activity against human NCI-N87 cells assessed as cell growth inhibition treated for 10 to 15 days. It counts as functional. The note with it: time 10-15 day.

Sequence of Testis-specific serine/threonine-protein kinase 1 (Homo sapiens) (Q9BXA7 whole entry, the tested form may be a part): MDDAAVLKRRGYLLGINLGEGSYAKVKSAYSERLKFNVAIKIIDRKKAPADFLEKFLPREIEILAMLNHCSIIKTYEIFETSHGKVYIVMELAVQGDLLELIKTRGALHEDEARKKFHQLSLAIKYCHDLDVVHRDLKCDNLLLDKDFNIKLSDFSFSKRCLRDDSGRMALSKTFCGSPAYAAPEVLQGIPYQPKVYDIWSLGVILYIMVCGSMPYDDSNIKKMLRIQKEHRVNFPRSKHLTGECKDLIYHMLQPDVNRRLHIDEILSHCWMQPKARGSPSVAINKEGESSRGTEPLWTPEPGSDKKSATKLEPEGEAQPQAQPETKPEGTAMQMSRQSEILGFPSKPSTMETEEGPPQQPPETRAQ
Sequence of Histone-lysine N-methyltransferase 2B (Q9UMN6 whole entry): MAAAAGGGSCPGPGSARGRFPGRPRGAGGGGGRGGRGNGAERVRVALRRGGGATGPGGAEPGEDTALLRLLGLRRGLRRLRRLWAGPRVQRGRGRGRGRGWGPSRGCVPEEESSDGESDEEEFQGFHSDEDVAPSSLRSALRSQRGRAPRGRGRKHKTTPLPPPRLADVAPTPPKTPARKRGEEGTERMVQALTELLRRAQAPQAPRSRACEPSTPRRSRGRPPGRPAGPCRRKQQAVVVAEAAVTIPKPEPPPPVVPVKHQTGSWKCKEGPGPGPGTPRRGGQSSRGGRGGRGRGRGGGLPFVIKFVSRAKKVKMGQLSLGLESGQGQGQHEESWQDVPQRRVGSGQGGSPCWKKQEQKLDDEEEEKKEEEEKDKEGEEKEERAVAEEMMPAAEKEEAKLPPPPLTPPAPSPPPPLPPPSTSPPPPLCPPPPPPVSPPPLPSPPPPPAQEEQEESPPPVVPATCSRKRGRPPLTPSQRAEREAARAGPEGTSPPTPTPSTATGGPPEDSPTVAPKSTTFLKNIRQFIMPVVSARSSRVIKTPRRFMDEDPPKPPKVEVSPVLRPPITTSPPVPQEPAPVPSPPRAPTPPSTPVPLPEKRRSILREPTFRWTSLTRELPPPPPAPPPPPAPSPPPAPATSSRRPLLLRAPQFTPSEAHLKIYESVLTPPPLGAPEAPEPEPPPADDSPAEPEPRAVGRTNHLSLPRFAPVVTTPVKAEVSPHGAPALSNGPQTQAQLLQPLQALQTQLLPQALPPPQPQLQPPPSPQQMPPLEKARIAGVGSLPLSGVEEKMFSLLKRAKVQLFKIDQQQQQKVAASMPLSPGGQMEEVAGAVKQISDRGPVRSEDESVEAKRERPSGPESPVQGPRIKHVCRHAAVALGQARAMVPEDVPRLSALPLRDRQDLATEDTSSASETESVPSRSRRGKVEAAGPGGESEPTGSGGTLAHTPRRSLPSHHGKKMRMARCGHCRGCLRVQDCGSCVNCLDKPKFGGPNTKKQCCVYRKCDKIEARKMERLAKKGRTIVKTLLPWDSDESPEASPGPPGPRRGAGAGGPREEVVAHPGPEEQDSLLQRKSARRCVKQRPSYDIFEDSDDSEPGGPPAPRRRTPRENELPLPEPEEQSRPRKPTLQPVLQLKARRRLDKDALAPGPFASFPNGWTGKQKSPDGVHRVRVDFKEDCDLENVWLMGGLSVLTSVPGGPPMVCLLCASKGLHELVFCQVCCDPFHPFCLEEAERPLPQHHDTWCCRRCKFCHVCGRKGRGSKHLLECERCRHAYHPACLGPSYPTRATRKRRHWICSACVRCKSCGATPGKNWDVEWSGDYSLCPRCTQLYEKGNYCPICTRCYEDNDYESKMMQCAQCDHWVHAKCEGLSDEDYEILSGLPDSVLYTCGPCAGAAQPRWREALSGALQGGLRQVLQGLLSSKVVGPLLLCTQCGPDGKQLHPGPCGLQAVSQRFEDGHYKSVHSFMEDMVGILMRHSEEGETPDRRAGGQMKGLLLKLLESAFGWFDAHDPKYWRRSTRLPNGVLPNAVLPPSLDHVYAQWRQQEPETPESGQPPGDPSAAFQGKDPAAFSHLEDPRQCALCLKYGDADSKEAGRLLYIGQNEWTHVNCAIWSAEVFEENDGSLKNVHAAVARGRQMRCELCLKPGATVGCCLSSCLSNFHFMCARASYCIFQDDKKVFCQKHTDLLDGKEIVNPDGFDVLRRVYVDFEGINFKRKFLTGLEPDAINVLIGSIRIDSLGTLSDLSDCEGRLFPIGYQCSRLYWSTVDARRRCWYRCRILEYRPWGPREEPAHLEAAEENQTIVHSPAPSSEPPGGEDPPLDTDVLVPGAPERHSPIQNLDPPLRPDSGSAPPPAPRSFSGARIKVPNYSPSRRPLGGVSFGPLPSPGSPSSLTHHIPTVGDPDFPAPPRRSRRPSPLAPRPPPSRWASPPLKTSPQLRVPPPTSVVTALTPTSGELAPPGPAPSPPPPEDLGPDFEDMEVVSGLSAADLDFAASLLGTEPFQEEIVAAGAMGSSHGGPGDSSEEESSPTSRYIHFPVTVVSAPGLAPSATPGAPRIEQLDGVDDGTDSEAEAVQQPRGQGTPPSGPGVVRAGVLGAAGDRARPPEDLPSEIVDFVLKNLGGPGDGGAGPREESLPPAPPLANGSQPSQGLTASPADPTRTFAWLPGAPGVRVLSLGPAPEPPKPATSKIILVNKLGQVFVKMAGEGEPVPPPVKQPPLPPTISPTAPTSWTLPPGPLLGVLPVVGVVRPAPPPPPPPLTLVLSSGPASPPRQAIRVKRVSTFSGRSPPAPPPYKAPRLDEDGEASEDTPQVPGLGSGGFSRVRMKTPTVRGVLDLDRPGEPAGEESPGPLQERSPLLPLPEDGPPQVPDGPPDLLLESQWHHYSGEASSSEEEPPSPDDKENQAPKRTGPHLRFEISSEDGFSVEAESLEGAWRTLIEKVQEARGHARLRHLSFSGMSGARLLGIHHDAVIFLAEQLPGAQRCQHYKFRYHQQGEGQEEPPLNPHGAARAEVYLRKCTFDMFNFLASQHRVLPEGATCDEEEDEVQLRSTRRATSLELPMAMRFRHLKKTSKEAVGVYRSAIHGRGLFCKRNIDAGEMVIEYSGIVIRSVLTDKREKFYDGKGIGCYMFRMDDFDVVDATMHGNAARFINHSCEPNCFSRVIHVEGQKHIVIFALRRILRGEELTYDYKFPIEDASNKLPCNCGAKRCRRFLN
Sequence of Histone-lysine N-methyltransferase SETD7 (Q8WTS6 whole entry): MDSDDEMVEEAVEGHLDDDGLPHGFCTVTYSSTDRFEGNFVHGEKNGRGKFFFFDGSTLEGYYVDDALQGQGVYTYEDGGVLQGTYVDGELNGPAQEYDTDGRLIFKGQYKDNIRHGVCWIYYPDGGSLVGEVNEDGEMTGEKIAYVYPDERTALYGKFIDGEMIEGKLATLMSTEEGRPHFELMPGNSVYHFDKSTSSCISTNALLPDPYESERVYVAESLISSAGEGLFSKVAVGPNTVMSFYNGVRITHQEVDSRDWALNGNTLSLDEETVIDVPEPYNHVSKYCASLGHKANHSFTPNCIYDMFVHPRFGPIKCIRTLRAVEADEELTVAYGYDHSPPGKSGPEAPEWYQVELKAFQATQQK
Sequence of N-lysine methyltransferase KMT5A (Q9NQR1 whole entry, the tested form may be a part): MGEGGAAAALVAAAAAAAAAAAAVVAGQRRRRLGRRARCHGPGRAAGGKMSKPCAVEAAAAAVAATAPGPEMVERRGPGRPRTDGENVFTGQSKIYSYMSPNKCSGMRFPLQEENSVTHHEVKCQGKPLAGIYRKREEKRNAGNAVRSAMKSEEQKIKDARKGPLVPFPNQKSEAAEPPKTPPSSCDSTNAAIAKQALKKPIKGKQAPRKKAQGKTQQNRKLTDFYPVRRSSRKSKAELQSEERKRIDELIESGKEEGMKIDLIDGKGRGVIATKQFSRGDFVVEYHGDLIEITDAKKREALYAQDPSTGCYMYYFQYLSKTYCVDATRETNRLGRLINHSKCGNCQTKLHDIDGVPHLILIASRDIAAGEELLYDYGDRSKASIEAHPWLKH
Sequence of MAP kinase-activated protein kinase 3 (Homo sapiens) (Q16644 whole entry, looked up, the tested form may be a part): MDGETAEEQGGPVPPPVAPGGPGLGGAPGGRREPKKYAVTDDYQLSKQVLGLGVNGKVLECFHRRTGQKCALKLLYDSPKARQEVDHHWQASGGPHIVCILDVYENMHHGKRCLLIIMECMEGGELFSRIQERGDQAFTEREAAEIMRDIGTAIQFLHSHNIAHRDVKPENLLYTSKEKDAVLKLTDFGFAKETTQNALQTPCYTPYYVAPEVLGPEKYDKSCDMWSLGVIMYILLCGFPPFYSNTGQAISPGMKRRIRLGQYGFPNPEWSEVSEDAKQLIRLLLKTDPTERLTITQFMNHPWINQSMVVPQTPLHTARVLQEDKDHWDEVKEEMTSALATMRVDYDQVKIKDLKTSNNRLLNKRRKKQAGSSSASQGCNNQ
Sequence of MAP kinase-activated protein kinase 2 (Homo sapiens) (P49137 whole entry, looked up, the tested form may be a part): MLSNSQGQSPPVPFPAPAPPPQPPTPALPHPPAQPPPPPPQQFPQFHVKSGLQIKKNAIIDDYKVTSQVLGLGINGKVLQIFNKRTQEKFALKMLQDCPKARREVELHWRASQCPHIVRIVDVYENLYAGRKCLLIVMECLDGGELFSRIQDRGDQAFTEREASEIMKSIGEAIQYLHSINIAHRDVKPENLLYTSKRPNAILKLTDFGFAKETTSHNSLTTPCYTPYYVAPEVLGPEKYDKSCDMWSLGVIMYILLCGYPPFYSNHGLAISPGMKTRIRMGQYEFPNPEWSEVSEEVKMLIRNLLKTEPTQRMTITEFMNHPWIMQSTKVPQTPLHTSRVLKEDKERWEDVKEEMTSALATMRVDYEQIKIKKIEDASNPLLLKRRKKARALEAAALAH

In the case of `Cc1cc(C)c(CNC(=O)c2cc(Br)c3c(c2C)O[C@@](C)([C@H]2CC[C@H](N(C)C)CC2)O3)c(=O)[nH]1`, the Cmax is 450 nM in data set [1] and 2440 nM in data set [3]. The inhibition in data set [2] was -2.6%. Further, the outcome in the data set on KARPAS-422 was Active. Also, the values for the Activity in data set [4] and in [5] were 216 mg/dL and “Toxic”, respectively.
`Cc1cc(C)c(CNC(=O)c2cc(Cl)c3c(c2C)O[C@@](C)([C@H]2CC[C@H](N(C)C)CC2)O3)c(=O)[nH]1` [VALEMETOSTAT]: the GI50 in the data set on SUP-B15 was 24.3 nM; in the data set with JM1 it was over 1000 nM; with BT-20, over 1000 nM; in the data set with THP-1 it was 68.1 nM; in data set [13], 444 nM; in the data set with HL-60, over 1000 nM. For the same compound, the GI50 in the data set on KCL-22 is 138 nM; in data set [14] it was 48.2 nM; with Toledo, over 1000 nM; in data set [15], 20.7 nM; in the data set with JeKo-1 it was 92.2 nM; in the data set on Granta-519, over 1000 nM. Moreover, the GI50 in data set [16] was 0.987 nM; in the data set on MDA-MB-175-VII it was 43.9 nM; with MDA-MB-157, over 1000 nM; in the data set with MDA-MB-231, over 1000 nM; with LS-513 it was over 1000 nM; with DMS-114, 5.5 nM. Further, the GI50 in the data set on NCI-H522 is 460 nM; with NCI-H1092, over 1000 nM; in the data set on NCI-H1694, over 1000 nM; in [17], 1.5 nM; in data set [18] it was 317 nM; with KURAMOCHI, over 1000 nM. Also, the concentration for 50% growth inhibition (GI50) with HPAC is over 1000 nM; in data set [19] it was 142 nM; in the data set on NCI-N87 it was 536 nM. In addition, the pIC50 in [6], in [7], in data set [8] and in data set [9] was 4.00 each time. The inhibition is 6.7% in [10], -9.3% in data set [11], -4.9% in [2] and 3.4% in [12].
